Measurements: patent publication US20050276794A1, “Composition and method for improving pancreatic islet cell survival” (priority 2004, published 2005)

Experiments:
[1] = system: isolated islet cells; assay type: cell-based
Procedure: Single islets were hand-picked from a Petri dish under microscopy and transferred to wells in a 96-well microculture plate. Micronutrients comprising alpha-tocopherol (50 μM), gamma-tocopherol (50 μM), and succinate (5 μM) were added to wells in various combinations, with regular media (no added micronutrients) used as control. Islet cell survival was indicated by maintenance of a more compact cell mass, with disruption of the cell mass indicating islet cell death detected by microscopic means. […] Samples are shown in duplicate (a—middle panel, and b—bottom panel), with the corresponding control in the top panel.

[2] = system: porcine islets; assay: Islet morphology under anoxia (photomicrographs); assay type: cell-based; conditions: 100 μM alone; up to 30 hrs anoxia; versus untreated islets
Procedure: Porcine islets were hand picked and placed in wells (one islet/well in triplicates) in a 96 micro plate. The islets were pre-incubated either in regular porcine culture media (M199) or in media supplemented with alpha-tocopherol 100 μM, gamma-tocopherol 100 μM or the combination of alpha-+gamma-tocopherol, 50 μM each prior to exposure to anoxia. Islets were then incubated for additional 30 hrs either under normoxia (control—95% Air, 5%CO2) or anoxia (95%N2, 5%CO2) in the presence or absence of the indicated vitamin E concentration. At four different time points (0 h, 12 h, 24 h and 30 h), islets were removed from the incubator, examined microscopically and photomicrographs were obtained. Panel A: Porcine islets cultured with regular porcine culture media (M199) under anoxia. As indicated by the photomicrographs, anoxia caused a significant change in to the islet morphology. […]
Porcine islets were isolated and then cultured for 48 hours according to standard protocols Islets were then cultured for an additional 18-24 hours in media in the presence or absence of alpha-tocopherol and gamma-tocopherol (50 μM each). […] Islet quality was assessed at time intervals ranging from 6 to 24 hours from the initiation of exposure to anoxia with Oxygen Consumption Rate (OCR), ATP, Caspase 3/7 activity measurements (all normalized to DNA), microphotography and transplantation into diabetic nude mice. […]

[3] = isolated islet cells in culture medium

| Structure (SMILES) | concentration at which increased benefit is noted [1, 3] | concentration at which protective effect is exhibited [1, 3] | islet morphology after exposure to anoxia [2] | protective benefit for preventing cell death in isolated islet cells (comparison) ([1]; compared with alpha-tocopherol or either tocopherol alone) |
| --- | --- | --- | --- | --- |
| Cc1c(C)c2c(c(C)c1O)CC[C@@](C)(CCC[C@H](C)CCC[C@H](C)CCCC(C)C)O2 [alpha-tocopherol] | at least 50 μM | at least 10 μM | more normal morphology | – |
| Cc1c(O)cc2c(c1C)O[C@](C)(CCC[C@H](C)CCC[C@H](C)CCCC(C)C)CC2 [gamma-tocopherol] | – | – | more normal morphology | more protective benefit |
